# Test system: MKN45 cells
# Assay: ALA-PDT using LNP under 980-nm NIR irradiation (MTT viability)
# Assay type: cell-based, Human
# Procedure: MKN45 cells were irradiated with NIR in the presence of ALA and LNP to confirm whether cell death occurred.
# A medium in a 10-cm dish containing MKN45 cells cultured in a liquid medium (RPMI-1640, FBS(+), and PSN(+)) was aspirated, and the cells were washed with 3 ml of a PBS solution. 1 ml of trypsin was added thereto, and the mixture was incubated (37° C. and 5% CO2) for 5 minutes. The enzymatic reaction of trypsin was terminated by the addition of 5 ml of a fresh medium. A total of 6 ml of the reaction mixture was centrifuged at 1100 rpm for 5 minutes. In this procedure, 10 μl of the sample was mixed with a dye trypan blue, which dyes dead cells. The number of cells was counted using a hemacytometer. After the centrifugation, the supernatant was aspirated, and 2 ml of a fresh medium was added to the cells. The resulting cells were inoculated at a concentration of 100 μl/well (2×10^4 cells/well) to a 96-well plate for ALA concentrations 1000, 100, 10, and 0 μM and a blank. LNP(+) and LNP(−) series were prepared per sample, and these samples were divided into two different plates for NIR(+) and NIR(−). After overnight culture, the medium in each well was discarded. 100 μl of a fresh medium (containing 2.5 mg/ml LNP for the LNP(+) series) and 0.2 M ALA adjusted to the concentrations mentioned above were added to each well of the plates. After incubation for 4 hours, each plate was irradiated from 50 mm above with 980-nm NIR (400 mA) for 3 min/well. After overnight culture, the medium in each well was discarded, and the cells were washed with 100 μl of a PBS solution. 100 μl of a fresh medium and 10 μl of an MTT methanol solution diluted 10-fold with PBS were added to each well. After incubation for 4 hours, 10% SDS was added thereto at a concentration of 100 μl/well, and the mixture was incubated overnight. The absorbance was measured at 570 nm to 660 nm.
# ALA-PDT was performed using commercially available LNP in the same way as in Example 4 except that the concentration of MKN45 cells was changed to 2×10^4 cells/well; the ALA concentrations were changed to 2000, 1000, 100, 10, and 0 μM; the culture time after addition of ALA was changed from 4 hours to 24 hours; and the NIR irradiation time was changed to 90 min/well.
# ALA-PDT was performed using synthetic LNP in the same way as in Example 5 except that: the concentration of the synthetic LNP prepared in Example 6 was set to 2 mg/mL; and the ALA concentrations were changed to 2000, 1500, 1000, 100, and 0 μM.
smiles,measurement,setting,value
"NCC(=O)CCC(=O)O [ALA, 5-aminolevulinic acid]",cell viability,"Example 4, FIG. 4, LNP(−),NIR(+), ALA 0-1000 μM, 4 h, 980-nm NIR 3 min/well",slight reduction in viability was confirmed
same,cell viability,"Example 4, FIG. 4, no NIR irradiation, ALA 0-1000 μM, 4 h, LNP(+) series 2.5 mg/ml and LNP(−) series",no change was observed in cell viability
same,cell viability,"Example 5, FIG. 5, LNP(−),NIR(+), ALA 0-2000 μM, 24 h, NIR 90 min/well",no change was confirmed in cell viability
same,cell viability,"Example 5, FIG. 5, no NIR irradiation, ALA 0-2000 μM, 24 h",no change was confirmed in cell viability
